Data reported in patent US20250066360A1, “PYRIDINE-CONTAINING POLYCYCLIC DERIVATIVE, AND PREPARATION METHOD THEREFOR AND USE THEREOF” (SHANGHAI HANSOH BIOMEDICAL CO., LTD., priority 2022, published 2025).
Where two headings read alike, the source gives them in different places.

How the values were obtained:
[1] = tested on: TNF-α in U937 cells; experiment: Inhibition of the expression level of TNF-α in LPS-stimulated U937 cells (ELISA); assay type: cell-based; conditions: Homo sapiens, U-937; PMA-differentiated U937, 10 ng/ml LPS 4 hours; read-out: U937 cell activity test TNF-α IC50
Method: U937 cells were treated with 20 ng/ml PMA for differentiation overnight, and after replacement with a fresh culture medium, the U937 cells were rested overnight. After differentiation, the U937 cells were digested and counted, and 50,000 cells per well were seeded in a 96-well plate until the cells adhered to the wall. A compound concentration gradient was prepared, the cells were pretreated with the compound for 1 hour (the highest final concentration of the compound was 1 μM, diluted in 3-fold concentration gradient), and 10 ng/ml LPS (Lipopolysaccharides from Escherichia coli O111:B4) was added for stimulation for 4 hours. Thereafter, the culture supernatant was collected by centrifugation and used for subsequent ELISA to detect the concentration of TNF-α in the supernatant. The concentration of TNF-α was detected according to the standard steps provided by the ELISA kit manufacturer.
A standard curve was plotted by a linear regression method from a TNF-α standard, and the concentration of TNF-α in a sample was derived by conversion according to the standard curve.
(§1) Calculation of inhibition rate: Inhibition rate %=[(mean value of TNF-α concentration in positive control well−mean value of TNF-α concentration in sample well)/(mean value of TNF-α concentration in positive control well−mean value of TNF-α concentration in negative control well)]×100%, wherein the positive control well was a well without a compound (DMSO-treated well), and the negative control well was a culture medium well.
Dose response curve fitting: Log(inhibitor) vs. response−Variable slope (four parameters) in GraphPad Prism 6 was used for fitting equation analysis of the compound concentration and the corresponding inhibition rate, and the curve was fitted to obtain the IC50 value of the compound. The fitting calculation equation was Y=Bottom+(Top−Bottom)/(1+10^((Log IC50−X)*HillSlope)).

[2] = target: T1, p38α/MK2 (Homo sapiens, UniProt P49137+Q16539); experiment: Inhibition of p38α/MK2 enzyme activity (TR-FRET, ULight-CREBtide); assay type: biochemical; conditions: for IC50: 0.06 nM p38a, 1.2 nM MK2, 25 μM ATP, read-out: p38/MK2 IC50; for Selectivity ratio (p38 IC50 / p38/MK2 IC50): selectivity ratio p38 IC50 over p38/MK2 IC50
T1 construct: purchased R & D systems (p38 alpha); Thermo (MK2) 5477-KS-010; PV3316
T1 sequence (Q16539 whole entry): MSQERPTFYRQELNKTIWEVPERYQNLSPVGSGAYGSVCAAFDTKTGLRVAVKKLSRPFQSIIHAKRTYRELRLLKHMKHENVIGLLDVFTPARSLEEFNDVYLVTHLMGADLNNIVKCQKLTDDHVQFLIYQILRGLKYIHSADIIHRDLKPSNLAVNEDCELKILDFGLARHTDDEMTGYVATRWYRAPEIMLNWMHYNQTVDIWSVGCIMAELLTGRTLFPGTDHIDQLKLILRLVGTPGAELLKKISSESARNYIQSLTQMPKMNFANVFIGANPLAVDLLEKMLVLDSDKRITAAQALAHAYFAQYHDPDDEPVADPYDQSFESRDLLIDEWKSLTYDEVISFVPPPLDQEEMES
T1 sequence (P49137 whole entry): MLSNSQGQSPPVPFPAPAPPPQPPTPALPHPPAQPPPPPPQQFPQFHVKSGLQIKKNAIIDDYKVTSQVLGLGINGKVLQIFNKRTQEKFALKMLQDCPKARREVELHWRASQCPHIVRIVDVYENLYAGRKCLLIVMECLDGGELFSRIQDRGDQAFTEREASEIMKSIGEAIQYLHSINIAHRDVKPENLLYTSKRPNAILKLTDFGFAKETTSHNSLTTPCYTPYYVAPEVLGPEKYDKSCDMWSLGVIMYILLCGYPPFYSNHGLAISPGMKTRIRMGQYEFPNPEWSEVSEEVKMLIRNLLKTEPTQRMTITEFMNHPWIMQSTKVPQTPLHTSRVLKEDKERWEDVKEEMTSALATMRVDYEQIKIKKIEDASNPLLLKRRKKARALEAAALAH
Method: (§2) 50 nM ULight-CREBtide and 25 μM ATP (ATP Solution) were added, and the mixture was reacted at room temperature for 1.5 hours. An equal volume of a detection and termination mixed solution (1×LANCE detection buffer containing 20 mM EDTA and 2 nM Europium-anti-phospho-CREB) was added, the mixture was mixed until uniform and centrifuged, a plate sealing film was attached, and a reaction was performed at room temperature for 1 hour. TR-FRET program of the EnVision instrument was used to read the plate, and the fluorescence value of each well was detected at 665 nm/615 nm.
(§3) Calculation was performed on the raw data (665 nm/615 nm reading ratio) according to the following formula to obtain the inhibition rate. Inhibition rate %=[(mean value in positive control well−value in sample well)/(mean value in positive control well−mean value in negative control well)]×100, wherein the positive control well was a reaction well without a compound […], and the negative control well was a reaction wells without an enzyme.
(§4) Log(inhibitor) vs. response−Variable slope (four parameters) in GraphPad Prism 6 was used for fitting equation analysis of the compound concentration and the corresponding inhibition rate, and the curve was fitted to obtain the IC50 value of the compound.
(§5) The fitting calculation equation was Y=Bottom+(Top−Bottom)/(1+10^((Log IC50−X)*HillSlope)).

[3] = target: T2, p38a (Active p38 alpha Protein) (Homo sapiens, UniProt Q16539); experiment: Inhibition of p38 enzyme activity (TR-FRET, ULight-MBP); assay type: biochemical; conditions: 3 nM p38a, 50 μM ATP
T2 construct: purchased R & D systems 5477-KS-010
T2 sequence (Q16539 whole entry): as the sequence (Q16539 whole entry) above
Method: as §2, with “Experimental method for determining the p38 enzyme activity: 3 nM p38a (Active p38 alpha Protein) and compounds diluted in a certain concentration gradient were incubated in 1× enzyme reaction buffer (50 mM HEPES pH 7.5, 1 mM EGTA, 10 mM MgCl2, 2 mM DTT, 0.01% Tween-20) for 1 hour. 50” for “50”, “ULight-MBP” for “ULight-CREBtide”, “50” for “25”, “(ATP 10 mM” for “(ATP”, “Europium-anti-P-MBP)” for “Europium-anti-phospho-CREB)”
as §3, §4, §5

[4] = tested on: p-Hsp27 in U937 cells; experiment: Inhibition of p-Hsp27 in LPS-stimulated U937 cells (ELISA); assay type: cell-based; conditions: Homo sapiens, U-937; PMA-differentiated U937, 10 ng/ml LPS 0.5 hours; read-out: U937 cell activity test p-HSP27 IC50
Method: U937 cells were treated with 20 ng/ml PMA for differentiation overnight, and after replacement with a fresh culture medium, the U937 cells were rested overnight. After differentiation, the U937 cell were digested and counted, and 25,000 cells per well were seeded in a 96-well plate until the cells adhered to the wall. A compound concentration gradient was prepared, the cells were pretreated with the compound for 1 hour (the highest final concentration of the compound was 1 μM, diluted in 3-fold concentration gradient), and 10 ng/ml LPS (Lipopolysaccharides from Escherichia coli O111:B4) was added for stimulation for 0.5 hours. After the cells were washed with PBS, the cells were lysed with a lysis solution. p-Hsp27 in the cell lysate was detected by using Phospho-HSP27 (S78/S82) DuoSet IC ELISA kit. For specific steps, reference could be made to the standard steps provided by the kit manufacturer.
as §1, with “of p-Hsp27” for “of”, “of p-Hsp27” for “of TNF-α concentration”, “a well without LPS stimulation.” for “a culture medium well.”
Dose response curve fitting: Log(inhibitor) vs. response−Variable slope (four parameters) in GraphPad Prism 6 was used for fitting equation analysis of the compound concentration and the corresponding inhibition rate, and the curve was fitted to obtain the IC50 value of the compound.
as §5

[5] = Pharmacokinetic assay in SD rats (PO administration); assay type: in vivo; conditions: male, Sprague-Dawley (SD), rat, plasma; for AUC(0-inf): read-out: Area under the curve AUC0-∞; for half-life: read-out: Half-life t1/2 (converted); for MRT: read-out: Mean residence time MRT; for Cmax: read-out: Plasma concentration Cmax; for Tmax: read-out: Time to peak tmax
Method: SD rats were used as test animals to study the pharmacokinetic behavior of the compounds of the present invention in the rat body (plasma) after oral administration at a dose of 5 mg/kg or 2 mg/kg and intravenous administration at a dose of 1 mg/kg.
3 SD rats/group, male, from Shanghai Jiesijie Experimental Animal Co., Ltd., animal production license number (SCXK (Shanghai) 2013-0006 N0.311620400001794).
PO, 10% solutol HS15 was dissolved by ultrasound and prepared into a clear solution or homogeneous suspension.
3 SD rats/group, male; After fasting overnight, the rats were administered p.o. at a dose of 5 mg/kg or 2 mg/kg with a dosage volume of 10 mL/kg and i.v. at a dose 1 mg/kg with a dosage volume of 5 mL/kg, respectively.
At 0.25, 0.5, 1, 2, 4, 6, 8, and 24 h after oral administration in the rats and at 0.083, 0.25, 0.5, 1, 2, 4, 6, 8, and 24 h after intravenous administration in the rats, 0.2 mL of blood was collected from the jugular vein, placed in an EDTA-K2 test tube, centrifuged at 4° C. at 6000 rpm for 6 min to separate plasma, which was stored at −80° C.
• 1) 100 μL of acetonitrile was added to 20 μL of plasma sample for pelleting, and it was mixed and centrifuged at 3500×g for 5-20 min. • 2) The treated supernatant solution was taken and subjected to LC/MS/MS to analyze the concentrations of the test compounds. LC/MS/MS analysis instrument: AB Sciex API 4000 Qtrap.
• Liquid phase conditions: Shimadzu LC-20AD pump • Chromatographic column: Waters Xbridge C18 5 μm, 4.6×50 mm, mobile phase: liquid A was 0.1% aqueous formic acid solution, and liquid B was methanol • Flow rate: 1.0 mL/min • Elution time: 0-4.0 min, the eluent was as follows:
The main pharmacokinetic parameters were calculated using WinNonlin 6.1.

[6] = target: p38-MK2 (Homo sapiens, UniProt P49137+Q16539); conditions: patients with rheumatoid arthritis, preliminary clinical trial results; cited from earlier work
Chain of p38-MK2 (Q16539 whole entry): as above
Chain of p38-MK2 (P49137 whole entry): as the sequence (P49137 whole entry) above

With `[2H]C([2H])(Oc1cc2n(c(=O)c1Cl)-c1c(cnc(-c3ccnc(C(C)(C)NC(C)=O)n3)c1F)CCCC2)c1ncc(F)cc1F` [Example 7-1, (R)—N-(2-(4-(11-chloro-10-((3,5-difluoropyridin-2-yl)methoxy-d2)-1-fluoro-12-carbonyl-6,7,8,12-tetrahydro-5H-dipyrido[1,2-a:3,4′-g]azocin-2-yl)pyrimidin-2-yl)propan-2-yl)acetamide] the IC50 [1] was 340 pM, the IC50 [2] was 340 pM and the “Selectivity ratio (p38 IC50 / p38/MK2 IC50)” value [2] was 144. The IC50 [3] was 49100 pM, the IC50 [4] was 350 pM and the AUC(0-inf) ([5]; 2 mg/kg) was 7350 ng·h/mL. It also gave a half-life ([5]; 2 mg/kg) of 1.4 h, an MRT ([5]; 2 mg/kg) of 2.5 h and a Cmax ([5]; 2 mg/kg) of 2160 ng/mL. It also gave a Tmax ([5]; 2 mg/kg) of 1 h.

With `[2H]C([2H])(Oc1cc2n(c(=O)c1Cl)-c1c(cnc(-c3ccnc(C(C)(C)O)n3)c1F)CCCC2)c1ncc(F)cc1F` [Example 9-1, (R)-11-chloro-10-((3,5-difluoropyridin-2-yl)methoxy-d2)-1-fluoro-2-(2-(2-hydroxypropan-2-yl)pyrimidin-4-yl)-5,6,7,8-tetrahydro-12H-dipyrido[1,2-a:3′4′-g]azocin-12-one] the IC50 [1] was 120 pM, the IC50 [2] was 140 pM and the “Selectivity ratio (p38 IC50 / p38/MK2 IC50)” value [2] was 164. For the same molecule, the IC50 [3] was 22900 pM, the IC50 [4] was 100 pM and the AUC(0-inf) ([5]; 5 mg/kg) was 22000 ng·h/mL. For the same molecule, the half-life ([5]; 5 mg/kg) was 2.5 h, the MRT ([5]; 5 mg/kg) was 3.8 h and the Cmax ([5]; 5 mg/kg) was 3760 ng/mL. For the same molecule, the Tmax ([5]; 5 mg/kg) was 0.5 h.

For `[2H]C([2H])(Oc1cc2n(c(=O)c1Cl)-c1c(cnc(-n3cc(F)c(C(C)(C)NC(C)=O)n3)c1F)CCCC2)c1ncc(F)cc1F` [Example 6-1, (R)—N-(2-(1-(11-chloro-10-((3,5-difluoropyridin-2-yl)methoxy-d2)-1-fluoro-12-carbonyl-6,7,8,12-tetrahydro-5H-dipyrido[1,2-a:3′,4′-g]azocin-2-yl)-4-fluoro-1H-pyrazol-3-yl)propan-2-yl)acetamide], the IC50 [1] was 160 pM, the IC50 [2] was 100 pM and the “Selectivity ratio (p38 IC50 / p38/MK2 IC50)” value [2] was 153. The IC50 [3] was 15300 pM, the IC50 [4] was 150 pM and the AUC(0-inf) ([5]; 5 mg/kg) was 14200 ng·h/mL. For the same molecule, the half-life ([5]; 5 mg/kg) was 2.7 h, the MRT ([5]; 5 mg/kg) was 2.9 h and the Cmax ([5]; 5 mg/kg) was 4180 ng/mL. For the same molecule, the Tmax ([5]; 5 mg/kg) was 1 h.

For `[2H]C([2H])(Oc1cc2n(c(=O)c1Cl)-c1cc(-n3cccc(C(C)(C)O)c3=O)ncc1CCCC2)c1ncc(F)cc1F` [Example 15-1, (S)-11-chloro-10-((3,5-difluoropyridin-2-yl)methoxy-d2)-2-(3-(2-hydroxypropan-2-yl)-2-carbonylpyridin-1(2H)-yl)-5,6,7,8-tetrahydro-12H-dipyrido[1,2-a:3′,4′-g]azocin-12-one], the IC50 [1] was 180 pM, the IC50 [2] was 200 pM and the “Selectivity ratio (p38 IC50 / p38/MK2 IC50)” value [2] was 268. It also gave an IC50 [3] of 53600 pM and an IC50 [4] of 320 pM.

With `[2H]C([2H])(Oc1cc2n(c(=O)c1Cl)-c1cc(-c3ccnc(C(C)(C)O)n3)ncc1CCCC2)c1ncc(F)cc1F` [Example 1-1, (S)-11-Chloro-10-((3,5-difluoropyridin-2-yl)methoxy-d2)-2-(2-(2-hydroxypropan-2-yl)pyrimidin-4-yl)-5,6,7,8-tetrahydro-12H-dipyrido[1,2-a:3′,4′-g]azol-12-one] the IC50 [1] was 1200 pM, the IC50 [2] was 710 pM and the “Selectivity ratio (p38 IC50 / p38/MK2 IC50)” value [2] was 109. It also gave an IC50 [3] of 77400 pM and an IC50 [4] of 170 pM.

For `Cc1cnc(-c2ccnc(C(C)(C)O)n2)cc1-n1c(C)cc(OCc2ncc(F)cc2F)c(Cl)c1=O` [ATI-450], the efficacy [6] is listed as “outstanding and lasting efficacy” and the safety and tolerability [6] is listed as “safe and tolerable”.
